Measured values reported in patent US20210130417A1, “SYSTEMS AND METHODS FOR DESIGNING SYNTHETIC ANTIMICROBIAL PEPTIDES” (University of Notre Dame du Lac, priority 2017, published 2021).
Values after ≈ are worked out from the molar mass of the structure shown. Residues, ends and D or L forms follow the SMILES beside them.

Experiments:
[1] = system: Pseudomonas aeruginosa PAO1
From the text: (§1) E. coli BL-21 frozen stock culture was purchased from Thermo Fischer. Pseudomonas aeruginosa PAO1 frozen stock culture was obtained from the Shrout Laboratory at the University of Notre Dame. Pseudomonas syringae frozen stock culture was obtained from the Innes Laboratory at Indiana University. Xanthomonas axonopodis pathovar Starr and Garces pathovar phaseoli (ATCC 9563) frozen stock culture was purchased from the ATCC. Streptococcus pyogenes M1T1 frozen stock culture was obtained from the lab of Dr. Victor Nizet, University of California San Diego. A methicillin resistant Staphylococcus aureus JKD frozen stock culture was obtained from the lab of Dr. Timothy Stinear, University of Melbourne.
(§2) The E. coli, P. aeruginosa, and P. syringae bacterial strains were routinely grown in LB broth (EMD Chemicals, Gibbstown, N.J.). S. aureus and S. pyogenes were routinely grown in Todd Hewitt broth (Neogen Corporation, Lansing, Mich.). X. axonopodis was routinely grown in Nutrient Broth (Sigma-Aldrich Co., St. Louis, Mo.). P. syringae and X. axonopodis were grown at room temperature without agitation. All other bacteria were grown at 37° C. with agitation.
(§3) Overnight bacterial cultures were diluted to an OD of 0.01. […] and 10 μL of 10× peptide or vehicle were added to the wells of a 96-well microtiter plate for a final 1× concentration. Bacteria were grown in desired growth conditions in a Synergy H1 Microplate Reader (Biotek, Winooski, Vt.). For MIC, serial two-fold dilutions of the peptides were used. MIC was determined as the concentration of peptide that prevented overnight growth as indicated by OD 600. For peptide screening, 8 μM or 4 μM peptide was screened against various bacteria. Peptides that inhibited overnight growth were selected for further study.

[2] = system: Streptococcus pyogenes M1T1
From the text: as §1, §2, §3

[3] = system: sheep red blood cells (RBCs); details: for hemolysis of library peptides: compared to the PBS control
Description: For hemolysis assays, 100 μL of sheep red blood cells (RBCs) were washed three times in cold PBS (Thermo Fischer). Washed cells were resuspended in 25 mL of PBS. Triton, PBS, or peptide in 10% DMSO/PBS were added to 180 μL of resuspended RBCs and incubated at 37° C. for 1 h. Samples were read at 450 nm. Data was expressed as percent hemolysis by relativizing to the Triton and PBS controls.

[4] = system: E. coli BL-21; format: cell-based, Escherichia coli
Description: The E. coli, P. aeruginosa, and P. syringae bacterial strains were routinely grown in LB broth (EMD Chemicals, Gibbstown, N.J.). […] All other bacteria were grown at 37° C. with agitation.
Overnight bacterial cultures were diluted to an OD of 0.01. μL of diluted culture and 10 μL of 10× peptide or vehicle were added to the wells of a 96-well microtiter plate for a final 1× concentration. Bacteria were grown in desired growth conditions in a Synergy H1 Microplate Reader (Biotek, Winooski, Vt.). For MIC, serial two-fold dilutions of the peptides were used. MIC was determined as the concentration of peptide that prevented overnight growth as indicated by OD 600.

[5] = system: HaCaT cells; experiment: Ethidium homodimer cytotoxicity assay; format: cell-based, human
Description: Medium was aspirated, and cells were washed with PBS. […] Cells were incubated with peptide for 16 h. Medium was aspirated, and cells were washed with PBS. […] The fluorescence was read again. […] Washed cells were resuspended in 25 mL of PBS. […] Samples were read at 450 nm.

CC[C@H](C)[C@H](NC(=O)[C@H](CCC(=O)O)NC(=O)[C@H](CC(N)=O)NC(=O)[C@H](CCCCN)NC(=O)[C@H](CC(C)C)NC(=O)[C@H](Cc1ccc(O)cc1)NC(=O)[C@H](CCCCN)NC(=O)[C@H](CCCNC(=N)N)NC(=O)[C@@H](NC(=O)[C@@H](NC(=O)[C@H](CCC(=O)O)NC(=O)[C@H](CCCCN)NC(=O)[C@H](Cc1c[nH]c2ccccc12)NC(=O)[C@H](C)N)[C@@H](C)O)[C@@H](C)CC)C(=O)N[C@@H](CCCCN)C(=O)N[C@@H](CCCCN)C(=O)N[C@@H](CCCCN)C(=O)N[C@@H](Cc1c[nH]c2ccccc12)C(=O)N[C@@H](CCCNC(=N)N)C(=O)N[C@@H](CCCCN)C(=O)N[C@@H](C)C(=O)N[C@H](C(=O)N[C@H](C(=O)N[C@@H](C)C(=O)N[C@@H](Cc1c[nH]c2ccccc12)C(=O)O)[C@@H](C)CC)C(C)C [Peptide 94] (H-AWKETIRKYLKNEIKKKWRKAVIAW-OH)
MIC P. aeruginosa [1]: 8 µM | MIC S. pyogenes [2]: 10 µM | hemolysis of library peptides [3]: low levels of hemolysis at higher concentrations | MIC E. coli [4]: 2 µM (≈ 6.38 µg/mL)

CC[C@H](C)[C@H](NC(=O)[C@H](CCCCN)NC(=O)[C@H](CCC(=O)O)NC(=O)[C@H](CCCCN)NC(=O)[C@H](Cc1c[nH]c2ccccc12)NC(=O)[C@H](C)N)C(=O)N[C@@H](CCCNC(=N)N)C(=O)N[C@@H](CCCCN)C(=O)N[C@@H](CCCCN)C(=O)N[C@@H](CC(C)C)C(=O)N[C@@H](CCCCN)C(=O)N[C@@H](CC(N)=O)C(=O)N[C@@H](CCC(=O)O)C(=O)N[C@H](C(=O)N[C@@H](CCCCN)C(=O)N[C@@H](CCCCN)C(=O)N[C@@H](CCCCN)C(=O)N[C@@H](Cc1c[nH]c2ccccc12)C(=O)N[C@@H](CCCNC(=N)N)C(=O)N[C@@H](CCCCN)C(=O)N[C@@H](C)C(=O)N[C@H](C(=O)N[C@H](C(=O)N[C@@H](C)C(=O)N[C@@H](Cc1c[nH]c2ccccc12)C(=O)O)[C@@H](C)CC)C(C)C)[C@@H](C)CC [Peptide 96] (H-AWKEKIRKKLKNEIKKKWRKAVIAW-OH)
MIC P. aeruginosa [1]: 8 µM | MIC S. pyogenes [2]: 8 µM | hemolysis of library peptides [3]: no significant changes in hemolysis | MIC E. coli [4]: 2 µM (≈ 6.36 µg/mL)

CC[C@H](C)[C@H](NC(=O)[C@H](CC(C)C)NC(=O)[C@H](CO)NC(=O)[C@@H](N)CC(C)C)C(=O)N[C@@H](C)C(=O)N[C@@H](C)C(=O)N[C@@H](C)C(=O)NCC(=O)N[C@@H](CCCCN)C(=O)N[C@@H](CCC(=O)O)C(=O)N[C@H](C(=O)N[C@H](C(=O)N[C@@H](CCCNC(=N)N)C(=O)N[C@@H](CCC(N)=O)C(=O)N[C@@H](Cc1ccc(O)cc1)C(=O)N[C@@H](CC(C)C)C(=O)N[C@@H](CCCCN)C(=O)N[C@@H](CC(N)=O)C(=O)N[C@@H](CCC(=O)O)C(=O)N[C@H](C(=O)N[C@@H](CCCCN)C(=O)N[C@@H](CCCCN)C(=O)N[C@@H](CCCCN)C(=O)NCC(=O)N[C@@H](CCCNC(=N)N)C(=O)N[C@@H](CCCCN)C(=O)N[C@@H](C)C(=O)N[C@H](C(=O)N[C@H](C(=O)N[C@@H](C)C(=O)N[C@@H](Cc1c[nH]c2ccccc12)C(=O)O)[C@@H](C)CC)C(C)C)[C@@H](C)CC)[C@@H](C)CC)[C@@H](C)O [syn-safencin] (H-LSLIAAAGKETIRQYLKNEIKKKGRKAVIAW-OH)
hemolytic activity ([3]; at the concentrations tested): mild hemolytic activity | cytotoxicity, dose dependence ([5]; HaCaT cells treated for 16 h, up to 32 μM): slight dose-dependent increase in cytotoxicity | cytotoxicity at the MIC for X. axonopodis ([5]; HaCaT cells, 16 h, 8 μM peptide): no significant increase in cytotoxicity | percent of cytotoxicity ([5]; HaCaT cells, 16 h, 32 μM peptide (highest dose), vehicle control 17%): ~25%
